Laboratory results taken from patent US20090124607A1, “Novel Bicyclic Sulfonamides for Use as Glucocorticoid Receptor Modulators in the Treatment of Inflammatory Diseases” (priority 2005, published 2009).

Biological target: T1, recombinant human GR (Homo sapiens, UniProt P04150)
T1 construct: purchased Panvera/Invitrogen P2812 (kit P2893)
T1 sequence (P04150 1-777): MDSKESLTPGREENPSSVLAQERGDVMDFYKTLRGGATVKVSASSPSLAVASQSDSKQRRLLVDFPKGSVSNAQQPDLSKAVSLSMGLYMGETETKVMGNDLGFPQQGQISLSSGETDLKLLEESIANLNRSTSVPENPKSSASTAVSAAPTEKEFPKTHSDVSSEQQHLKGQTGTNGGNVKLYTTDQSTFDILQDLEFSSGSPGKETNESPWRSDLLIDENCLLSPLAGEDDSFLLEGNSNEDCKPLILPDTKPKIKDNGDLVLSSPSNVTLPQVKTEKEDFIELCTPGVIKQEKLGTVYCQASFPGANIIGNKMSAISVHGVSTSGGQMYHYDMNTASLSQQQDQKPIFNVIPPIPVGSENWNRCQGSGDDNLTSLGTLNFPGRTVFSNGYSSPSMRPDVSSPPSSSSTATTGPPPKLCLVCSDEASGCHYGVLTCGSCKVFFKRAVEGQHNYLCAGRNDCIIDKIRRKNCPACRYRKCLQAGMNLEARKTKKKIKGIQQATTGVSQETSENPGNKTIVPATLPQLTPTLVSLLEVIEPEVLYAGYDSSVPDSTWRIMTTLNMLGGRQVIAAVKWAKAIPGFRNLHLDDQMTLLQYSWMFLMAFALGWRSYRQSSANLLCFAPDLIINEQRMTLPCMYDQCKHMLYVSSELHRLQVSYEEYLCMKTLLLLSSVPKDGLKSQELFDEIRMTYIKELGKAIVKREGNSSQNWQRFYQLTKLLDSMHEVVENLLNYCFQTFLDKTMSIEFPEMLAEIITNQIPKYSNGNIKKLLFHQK
Experiment: Human Glucocorticoid Receptor (GR) Assay, fluorescence polarization (GRhuFL_FP_v2, GR-binders)
Assay type: binding
Description: Human Glucocorticoid Receptor (GR) Assay
The assay is based on a commercial kit from Panvera/Invitrogen (Part number P2893). The assay technology is fluorescence polarization. […] The GR and Stabilizing Peptide reagents are stored at −70° C. while the GS Red is stored at −20° C. Also included in the kit are 1M DTT (Panvera, Part number P2325, stored at −20° C.) and GR Screening buffer 10× (Panvera, Part number P2814, stored at −70° C. initially but once thawed stored at room temperature). Avoid repeated freeze/thaws for all reagents. The GR Screening buffer 10× comprises 100 mM potassium phosphate, 200 mM sodium molybdate, 1 mM EDTA and 20% DMSO.
0% control was 100% DMSO and 100% control was 10 μM Dexamethasone. Background solution (8 μL; assay buffer 10×, Stabilizing Peptide, DTT and ice cold MQ water) was added to the background wells. GS Red solution (7 μL; assay buffer 10×, Stabilizing Peptide, DTT, GS Red and ice cold water) was added to all wells except background wells. GR solution (7 μL; assay buffer 10×, Stabilizing Peptide, DTT, GR and ice cold water) was added to all wells. The plate was sealed and incubated in a dark at room temperature for 2 hours.

| SMILES | IC50 [nM] |
| --- | --- |
| COc1cncc(-n2ncc3c(NC[C@H](C)NS(=O)(=O)c4c(C)nn(C5CCCC5)c4C)cccc32)c1 [Example 31, 1-Cyclopentyl-N-((1S)-2-{[1-(5-methoxypyridin-3-yl)-1H-indazol-4-yl]amino}-1-methylethyl)-3,5-dimethyl-1H-pyrazole-4-sulfonamide] | 44 |
| Cc1cc(C)c(S(=O)(=O)N[C@@H](C)CNc2ccc(F)c3c2cnn3-c2ccc(F)cc2)c(C)c1 [Example 33, N-((1S)-2-{[7-Fluoro-1-(4-fluoro-phenyl)-1H-indazol-4-yl]amino}-1-methylethyl)-2,4,6-trimethylbenzenesulfonamide] | 5.5 |
| Cc1cc(C)c(S(=O)(=O)N[C@@H](C)CNc2cccc3c2cnn3-c2cccc(OC(F)(F)F)c2)c(C)c1 [Example 6, 2,4,6-Trimethyl-N-[(1S)-1-methyl-2-({1-[3-(trifluoromethoxy)phenyl]-1H-indazol-4-yl}amino)ethyl]benzenesulfonamide] | 15 |
| Cc1nn(C(C)(C)C)c(C)c1S(=O)(=O)N[C@@H](C)COc1cccc2c1cnn2-c1ccc(F)cc1 [Example 43, 1-tert-Butyl-N-((1S)-2-[{1-(4-fluorophenyl)-1H-indazol-4-yl]oxy}-1-methylethyl)-3,5-dimethyl-1H-pyrazole-4-sulfonamide] | 13 |
| Cc1cc(C)c(S(=O)(=O)N[C@@H](C)CNc2cccc3c2cnn3-c2cccc(C(F)(F)F)c2)c(C)c1 [Example 19, 2,4,6-Trimethyl-N-[(1S)-1-methyl-2-({1-[3-(trifluoromethyl)phenyl]-1H-indazol-4-yl}amino)ethyl]benzene sulfonamide] | 260 |
| Cc1cc(C)c(S(=O)(=O)N[C@@H](C)CNc2cccc3c2cnn3-c2ccc(F)c(C)c2)c(C)c1 [Example 17, N-((1S)-2-{[1-(4-Fluoro-3-methylphenyl)-1H-indazol-4-yl]amino}-1-methylethyl)-2,4,6-trimethylbenzenesulfonamide] | 4 |
| Cc1cc(C)c(S(=O)(=O)N[C@@H](C)CNc2cccc3c2cnn3-c2ccccc2)c(C)c1 [Example 7, 2,4,6-Trimethyl-N-{(1S)-1-methyl-2-[(1-phenyl-1H-indazol-4-yl)amino]ethyl}benzenesulfonamide] | 3.5 |
| Cc1nn(C2CCCC2)c(C)c1S(=O)(=O)N[C@@H](C)COc1cccc2c1cnn2-c1ccc(F)cc1 [Example 48, 1-Cyclopentyl-N-((1S)-2-{[1-(4-fluorophenyl)-1H-indazol-4-yl]oxy}-1-methylethyl)-3,5-dimethyl-1H-pyrazole-4-sulfonamide] | 51 |
| Cc1n[nH]c(C)c1S(=O)(=O)N[C@@H](C)COc1cccc2c1cnn2-c1ccc(F)cc1 [Example 41, N-((1S)-2-{[1-(4-Fluorophenyl)-1H-indazol-4-yl]oxy}-1-methylethyl)-3,5-dimethyl-1H-pyrazole-4-sulfonamide] | 1.5 |
| Cc1cc(C)c(S(=O)(=O)NC[C@H](C)Nc2cccc3c2cnn3-c2ccc(F)cc2)c(C)c1 [Example 40, N-((2S)-2-{[1-(4-Fluorophenol)-1H-indazol-4-yl]amino}propyl)-2,4,6-trimethylbenzenesulfonamide] | 6.4 |
| Cc1cc(C)c(S(=O)(=O)NC(C)CCc2cccc3c2cnn3-c2ccc(F)cc2)c(C)c1 (stereo not shown) [Example 38, N-{3-[1-(4-Fluorophenyl)-1H-indazol-4-yl]-1-methylpropyl}-2,4,6-trimethylbenzenesulfonamide] | 45 |
| Cc1nn(C(C)(C)C)c(C)c1S(=O)(=O)N[C@@H](C)COc1cccc2c1cnn2-c1cccnc1 [Example 44, 1-tert-Butyl-3,5-dimethyl-N-{(1S)-1-methyl-2-[(1-pyridin-3-yl-1H-indazol-4-yl)oxy]ethyl}-1H-pyrazole-4-sulfonamide] | 80 |
| Cc1cc(C)c(S(=O)(=O)N[C@@H](C)CNc2cccc3c2cnn3C2CCCC2)c(C)c1 [Example 50, N-{(1S)-2-[(1-Cyclopentyl-1H-indazol-4-yl)amino]-1-methylethyl}-2,4,6-trimethylbenzene sulfonamide] | 7 |
| Cc1cc(C)c(S(=O)(=O)N[C@@H](C)CNc2cccc3c2cnn3-c2cccc(F)c2)c(C)c1 [Example 13, N-((1S)-2-{[1-(3-Fluorophenyl)-1H-indazol-4-yl]amino}-1-methylethyl)-2,4,6-trimethylbenzenesulfonamide] | 4 |
| Cc1nn(C2CCCC2)c(C)c1S(=O)(=O)N[C@@H](C)CNc1cccc2c1cnn2-c1cncnc1 [Example 29, 1-Cyclopentyl-3,5-dimethyl-N-{(1S)-1-methyl-2-[(1-pyrimidin-5-yl-1H-indazol-4-yl)amino]ethyl}-1H-pyrazole-4-sulfonamide] | 5.7 |
| Cc1cc(C)c(S(=O)(=O)N[C@@H](C)CCc2cccc3c(-c4ccc(F)cc4)n[nH]c23)c(C)c1 [Example 53, N-{(1S)-3-[3-(4-Fluorophenyl)-1H-indazol-7-yl]-1-methylpropyl}-2,4,6-trimethylbenzenesulfonamide] | 10 |
| Cc1n[nH]c(C)c1S(=O)(=O)N[C@@H](C)COc1cccc2c1cnn2-c1cccnc1 [Example 42, 3,5-Dimethyl-N-{(1S)-1-methyl-2-[(1-pyridin-3-yl-1H-indazol-4-yl)oxy]ethyl}-1H-pyrazole-4-sulfonamide] | 4000 |
| Cc1cc(C)c(S(=O)(=O)N[C@@H](C)CNc2cccc3c2cnn3-c2ccc(F)nc2)c(C)c1 [Example 3, N-((1S)-2-{[1-(6-Fluoropyridin-3-yl)-1H-indazol-4-yl]amino}-1-methylethyl)-2,4,6-trimethylbenzenesulfonamide] | 2.3 |
| COc1ccc(-n2ncc3c(NC[C@H](C)NS(=O)(=O)c4c(C)cc(C)cc4C)cccc32)cn1 [Example 11, N-((1S)-2-{[1-(6-Methoxypyridin-3-yl)-1H-indazol-4-yl]amino}-1-methylethyl)-2,4,6-trimethylbenzenesulfonamide] | 6.6 |
| Cc1cc(C)c(S(=O)(=O)N[C@@H](C)CNc2cccc3c2cnn3-c2cccc(C(=O)O)c2)c(C)c1 [Example 18, 3-[4-({(2S)-2-[(2,4,6-Trimethylbenzenesulfonyl)amino]propyl}amino)-1H-indazol-1-yl]benzoic acid] | 57 |
| Cc1cc(C)c(S(=O)(=O)N[C@@H](C)CNc2cccc3c2cnn3-c2cccnc2)c(C)c1 [Example 16, 2,4,6-Trimethyl-N-{(1S)-1-methyl-2-[(1-pyridin-3-yl-1H-indazol-4-yl)amino]ethyl}benzenesulfonamide] | 5.6 |
| Cc1cccc(-n2ncc3c(NC[C@H](C)NS(=O)(=O)c4c(C)cc(C)cc4C)cccc32)c1 [Example 9, 2,4,6-Trimethyl-N-((1S)-1-methyl-2-{[1-(3-methylphenyl)-1H-indazol-4-yl]amino}ethyl)benzenesulfonamide] | 3.8 |
| Cc1ccc(-n2ncc3c(NC[C@H](C)NS(=O)(=O)c4c(C)cc(C)cc4C)cccc32)cc1 [Example 12, 2,4,6-Trimethyl-N-((1S)-1-methyl-2-{[1-(4-methylphenyl)-1H-indazol-4-yl]amino}ethyl)benzenesulfonamide] | 3.9 |
| Cc1cc(C)c(S(=O)(=O)N[C@@H](C)CNc2ncnc3c2cnn3-c2ccccc2)c(C)c1 [Example 34, 2,4,6-Trimethyl-N-{(1S)-1-methyl-2-[(1-phenyl-1H-pyrazolo[3,4-d]pyrimidin-4-yl)amino]ethyl}benzenesulfonamide] | 5300 |
| Cc1cc(C)c(S(=O)(=O)NCC(C)(C)Nc2cccc3c2cnn3-c2ccc(F)cc2)c(C)c1 [Example 55, N-[2-[[1-(4-Fluorophenyl)indazol-4-yl]amino]-2-methylpropyl]-2,4,6-trimethyl-benzenesulfonamide] | 24 |
